“And” between values parts separate entries of the source, which are not always exact repeats. Equal entries are not always repeated. Inconclusive results and toxic doses are left out.
Test system: P388 leukemia ip, CD2F1 mice, survival T/C
Assay: NCI In Vivo Anticancer Drug Screen. Data for tumor model P388 Leukemia (intraperitoneal) in CD2F1 (CDF1) mice
Conditions: endpoint: median survival time, higher = longer survival
Summary of the method: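 Mice carrying the transplanted tumor received test compound or vehicle. Survival was recorded in each group, and the value is the treated-group measurement divided by that of the vehicle-treated control group.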

[1] = dose: 50.0 mg/kg/injection, schedule: Q01DX005 (ip), vehicle: saline with Tween-80
[2] = dose: 100.0 mg/kg/injection, schedule: Q01DX005 (ip), vehicle: saline with Tween-80
[3] = dose: 200.0 mg/kg/injection, schedule: Q01DX005 (ip), vehicle: saline with Tween-80
[4] = dose: 50.0 mg/kg/injection, schedule: Q01DX009 (ip), vehicle: saline
[5] = dose: 100.0 mg/kg/injection, schedule: Q01DX009 (ip), vehicle: saline
[6] = dose: 200.0 mg/kg/injection, schedule: Q01DX009 (ip), vehicle: saline
[7] = dose: 60.0 mg/kg/injection, schedule: Q01DX005 (ip), vehicle: Klucel (hydroxypropylcellulose) (HPC)
[8] = dose: 120.0 mg/kg/injection, schedule: Q01DX005 (ip), vehicle: Klucel (hydroxypropylcellulose) (HPC)
[9] = dose: 240.0 mg/kg/injection, schedule: Q01DX005 (ip), vehicle: Klucel (hydroxypropylcellulose) (HPC)
[10] = dose: 60.0 mg/kg/injection, schedule: Q01DX005 (ip), vehicle: saline with Tween-80
[11] = dose: 12.5 mg/kg/injection, schedule: Q01DX009 (ip), vehicle: saline with Tween-80
[12] = dose: 25.0 mg/kg/injection, schedule: Q01DX009 (ip), vehicle: saline with Tween-80
[13] = dose: 50.0 mg/kg/injection, schedule: Q01DX009 (ip), vehicle: saline with Tween-80
[14] = dose: 100.0 mg/kg/injection, schedule: Q01DX009 (ip), vehicle: saline with Tween-80
[15] = dose: 12.5 mg/kg/injection, schedule: Q01DX009 (ip), vehicle: Klucel (hydroxypropylcellulose) (HPC)
[16] = dose: 50.0 mg/kg/injection, schedule: Q01DX009 (ip), vehicle: Klucel (hydroxypropylcellulose) (HPC)
[17] = dose: 100.0 mg/kg/injection, schedule: Q01DX009 (ip), vehicle: Klucel (hydroxypropylcellulose) (HPC)
[18] = dose: 200.0 mg/kg/injection, schedule: Q01DX009 (ip), vehicle: Klucel (hydroxypropylcellulose) (HPC)
[19] = dose: 200.0 mg/kg/injection, schedule: Q01DX009 (ip), vehicle: saline with Tween-80

Cc1ccc2c(c1)Sc1c(ccc3ccccc13)N2
T/C [1]: 103 % of control | T/C [2]: 102 % of control | T/C [3]: 97 % of control

CCc1cccc(CC)c1N1C(=O)c2cccnc2C1=O
T/C [4]: 100 % of control | T/C [5]: 97 % of control | T/C [6]: 93 % of control

O=c1[nH]c2ccccc2c(Oc2ccccc2)c1I
T/C [7]: 89 % of control | T/C [8]: 92 % of control | T/C [9]: 101 % of control

N=C(N)SC12CC3CC(CC(C3)C1)C2
T/C (dose: 7.5 mg/kg/injection, schedule: Q01DX005 (ip), vehicle: saline with Tween-80): 93 % of control | T/C (dose: 15.0 mg/kg/injection, schedule: Q01DX005 (ip), vehicle: saline with Tween-80): 98 % of control | T/C (dose: 30.0 mg/kg/injection, schedule: Q01DX005 (ip), vehicle: saline with Tween-80): 99 % of control | T/C [10]: 98 % of control

O=C1c2ccccc2C(O)(C#Cc2ccccc2)c2c1oc1c2ccc2ccccc21 (stereo not given)
T/C [11]: 97 % of control | T/C [12]: 92 % of control | T/C [13]: 90 % of control | T/C [14]: 108 % of control

Cc1ccc2c(NCCCCCCCCNc3c4ccccc4nc4cc(C)ccc34)c3ccccc3nc2c1
T/C (dose: 2.5 mg/kg/injection, schedule: Q01DX009 (ip), vehicle: water): 150 % of control

CC(=O)OCc1c(COC(C)=O)c(-c2ccccc2)n2c1CCC2
T/C [15]: 110 % of control | T/C [16]: 87 % of control

CCSC(=O)OCC(C)([N+](=O)[O-])[N+](=O)[O-]
T/C (dose: 100.0 mg/kg/injection, schedule: Q04DX003 (ip), vehicle: saline): 94 % of control | T/C (dose: 200.0 mg/kg/injection, schedule: Q04DX003 (ip), vehicle: saline): 94 % of control | T/C (dose: 400.0 mg/kg/injection, schedule: Q04DX003 (ip), vehicle: saline): 100 % of control

CCCCNC(=O)C1CC2c3cccc4c3c(cn4C)CC2N(C)C1 (stereo not given)
T/C (dose: 25.0 mg/kg/injection, schedule: Q01DX001 (ip), vehicle: saline): 102 % of control | T/C (dose: 50.0 mg/kg/injection, schedule: Q01DX001 (ip), vehicle: saline): 105 % of control

O=C1CC2(CC=CCC23OCCO3)CC(CI)O1 (stereo not given)
T/C (dose: 2.5 mg/kg/injection, schedule: Q01DX005 (ip), vehicle: acid diluted with saline): 106 % of control | T/C (dose: 5.0 mg/kg/injection, schedule: Q01DX005 (ip), vehicle: Klucel (hydroxypropylcellulose) (HPC)): 100 % of control | T/C (dose: 5.0 mg/kg/injection, schedule: Q01DX005 (ip), vehicle: acid diluted with saline): 111 % of control | T/C (dose: 10.0 mg/kg/injection, schedule: Q01DX005 (ip), vehicle: Klucel (hydroxypropylcellulose) (HPC)): 100 % of control | T/C (dose: 10.0 mg/kg/injection, schedule: Q01DX005 (ip), vehicle: acid diluted with saline): 93 % of control | T/C (dose: 20.0 mg/kg/injection, schedule: Q01DX005 (ip), vehicle: Klucel (hydroxypropylcellulose) (HPC)): 98 % of control | T/C (dose: 20.0 mg/kg/injection, schedule: Q01DX005 (ip), vehicle: acid diluted with saline): 100 % of control | T/C (dose: 40.0 mg/kg/injection, schedule: Q01DX005 (ip), vehicle: Klucel (hydroxypropylcellulose) (HPC)): 103 % of control

CN(C)/N=C1/CCCCC1C(O)(c1ccccc1)c1ccccc1 (stereo not given)
T/C [10]: 97 % of control

CCCCCCCCCCCCCCCC[n+]1cccc(C(=O)NCO)c1
T/C (dose: 6.25 mg/kg/injection, schedule: Q01DX009 (ip), vehicle: saline with Tween-80): 100 % of control | T/C [11]: 104 % of control | T/C [12]: 104 % of control

CCOc1cc2c(cc1C(C)c1ccc(Cl)cc1)OCO2 (stereo not given)
T/C [1]: 93 % of control | T/C [2]: 99 % of control | T/C [3]: 93 % of control

CC1(C)OP2(O)(OC(C)(C)c3ccccc32)c2ccccc21
T/C [16]: 99 % of control | T/C [17]: 102 % of control | T/C [18]: 104 % of control

Fc1ccccc1/C=C/c1ccnnc1
T/C [4]: 94 % of control | T/C [5]: 95 % of control | T/C [6]: 103 % of control

N#Cc1ccccc1Cl
T/C [13]: 100 % of control | T/C [14]: 101 % of control | T/C [19]: 98 % of control

CC1CN1P(=S)(N1CC1C)N1CC1C (stereo not given)
T/C (dose: 2.5 mg/kg/injection, schedule: Q01DX010 (ip), vehicle: saline): 110 % of control | T/C (dose: 5.0 mg/kg/injection, schedule: Q01DX010 (ip), vehicle: saline): 95 % of control | T/C (dose: 10.0 mg/kg/injection, schedule: Q01DX010 (ip), vehicle: saline): 115 % of control

Oc1ccccc1C=Nc1ccc(Cl)cn1
T/C [4]: 99 % of control | T/C [5]: 100 % of control | T/C [6]: 107 % of control

CCCCCCCCC#CC(=O)O
T/C [13]: 94 % of control | T/C [14]: 95 % of control | T/C [19]: 86 % of control

Cc1coc2c1C[C@@]1(C)[C@H](C2)C(=O)CC[C@@H]1C
T/C (dose: 37.5 mg/kg/injection, schedule: Q01DX009 (ip), vehicle: Klucel (hydroxypropylcellulose) (HPC)): 105 % of control

Nc1c(C(=O)NCc2ccccc2)c2nc3c(C(=O)NCc4ccccc4)cccc3oc-2cc1=O
T/C (dose: 1.56 mg/kg/injection, schedule: Q01DX005 (ip), vehicle: saline with Tween-80): 99 % of control | T/C (dose: 3.12 mg/kg/injection, schedule: Q01DX005 (ip), vehicle: saline with Tween-80): 89 % of control | T/C (dose: 6.25 mg/kg/injection, schedule: Q01DX005 (ip), vehicle: saline with Tween-80): 89 % of control | T/C [2]: 86 % of control | T/C [3]: 100 % of control

COC(=O)C1=COC(OC2OC(CO)C(O)C(O)C2O)C2C(C)C(O)C(OC(=O)/C=C/c3ccc(OC)cc3)C12 (stereo not given)
T/C (dose: 9.38 mg/kg/injection, schedule: Q01DX005 (ip), vehicle: Klucel (hydroxypropylcellulose) (HPC)): 96 % of control | T/C (dose: 37.5 mg/kg/injection, schedule: Q01DX005 (ip), vehicle: Klucel (hydroxypropylcellulose) (HPC)): 88 % of control | T/C [7]: 93 % of control | T/C (dose: 75.0 mg/kg/injection, schedule: Q01DX005 (ip), vehicle: Klucel (hydroxypropylcellulose) (HPC)): 88 % of control | T/C [8]: 93 % of control | T/C [9]: 86 % of control

COC1C(O)=C2C(=O)OC(C)(O)/C=C/C=C\C=C/C=C/C(c3ccccc3)NC(=O)/C=C/C=C/C=C/C=C/C2(C)C1O (stereo not given)
T/C [15]: 103 % of control and 86 % of control

O=C1OCC/C1=C/OS(=O)(=O)C(F)(F)F
T/C (dose: 18.8 mg/kg/injection, schedule: Q01DX009 (ip), vehicle: distilled water + Tween-80): 101 % of control and 107 % of control | T/C (dose: 37.5 mg/kg/injection, schedule: Q01DX009 (ip), vehicle: distilled water + Tween-80): 110 % of control | T/C (dose: 75.0 mg/kg/injection, schedule: Q01DX009 (ip), vehicle: distilled water + Tween-80): 118 % of control and 123 % of control

[Cl][Pt+2][Cl].[NH-]C1CCC1.[NH2-]
T/C (dose: 1.5 mg/kg/injection, schedule: Q01DX005 (ip), vehicle: saline): 155 % of control and 167 % of control | T/C (dose: 3.0 mg/kg/injection, schedule: Q01DX005 (ip), vehicle: saline): 155 % of control and 189 % of control and 190 % of control | T/C (dose: 12.0 mg/kg/injection, schedule: Q01DX005 (ip), vehicle: saline): 214 % of control

Cc1nc2ccc(Cl)cn2c1[N+](=O)[O-]
T/C [16]: 96 % of control | T/C [17]: 95 % of control | T/C [18]: 96 % of control

O=C(/C=C/c1cccc(Cl)c1)c1ccccc1
T/C [16]: 102 % of control | T/C [17]: 104 % of control | T/C (dose: 150.0 mg/kg/injection, schedule: Q01DX009 (ip), vehicle: Klucel (hydroxypropylcellulose) (HPC)): 110 % of control | T/C [18]: 122 % of control

CC(C)(C)OC(=O)NCC(=O)ON1C(=O)CCC1=O
T/C [13]: 118 % of control | T/C [14]: 102 % of control

NCc1cc(O)c(O)c(O)c1
T/C (dose: 25.0 mg/kg/injection, schedule: Q01DX009 (ip), vehicle: saline): 100 % of control | T/C [4]: 103 % of control and 120 % of control | T/C [5]: 110 % of control and 118 % of control and 114 % of control | T/C [6]: 116 % of control and 120 % of control and 122 % of control | T/C (dose: 400.0 mg/kg/injection, schedule: Q01DX009 (ip), vehicle: saline): 121 % of control and 123 % of control and 124 % of control | T/C (dose: 600.0 mg/kg/injection, schedule: Q01DX009 (ip), vehicle: saline): 155 % of control and 157 % of control and 150 % of control

N#CCCN(CCC#N)c1ccc(CC2C(=O)N(c3cccc(S(=O)(=O)O)c3)N=C2C(=O)O)cc1 (stereo not given)
T/C [10]: 93 % of control | T/C (dose: 120.0 mg/kg/injection, schedule: Q01DX005 (ip), vehicle: saline with Tween-80): 96 % of control | T/C (dose: 240.0 mg/kg/injection, schedule: Q01DX005 (ip), vehicle: saline with Tween-80): 95 % of control
